Among the data in BindingDB's records for doi:10.3109/14756366.2011.643302 (Centre de Recherche de Gif, 2013) are IC50 values, retold here.

Assay [1] concerns the target T1, Protein farnesyltransferase subunit beta/geranylgeranyltransferase type-1 subunit alpha (Saccharomyces cerevisiae (strain ATCC 204508 / S288c), UniProt P22007+P29703).
T1 sequence (P22007 whole entry): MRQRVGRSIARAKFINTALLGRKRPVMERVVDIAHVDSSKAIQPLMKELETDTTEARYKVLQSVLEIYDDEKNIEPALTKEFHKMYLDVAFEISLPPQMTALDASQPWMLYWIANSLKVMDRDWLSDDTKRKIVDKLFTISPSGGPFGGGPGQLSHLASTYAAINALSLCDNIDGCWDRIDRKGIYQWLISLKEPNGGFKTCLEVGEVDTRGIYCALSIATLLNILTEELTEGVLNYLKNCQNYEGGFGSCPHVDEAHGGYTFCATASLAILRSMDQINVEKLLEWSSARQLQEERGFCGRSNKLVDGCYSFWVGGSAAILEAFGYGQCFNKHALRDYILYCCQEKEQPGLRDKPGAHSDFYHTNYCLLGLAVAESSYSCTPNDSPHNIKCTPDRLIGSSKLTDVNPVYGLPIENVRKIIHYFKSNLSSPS
T1 sequence (P29703 whole entry): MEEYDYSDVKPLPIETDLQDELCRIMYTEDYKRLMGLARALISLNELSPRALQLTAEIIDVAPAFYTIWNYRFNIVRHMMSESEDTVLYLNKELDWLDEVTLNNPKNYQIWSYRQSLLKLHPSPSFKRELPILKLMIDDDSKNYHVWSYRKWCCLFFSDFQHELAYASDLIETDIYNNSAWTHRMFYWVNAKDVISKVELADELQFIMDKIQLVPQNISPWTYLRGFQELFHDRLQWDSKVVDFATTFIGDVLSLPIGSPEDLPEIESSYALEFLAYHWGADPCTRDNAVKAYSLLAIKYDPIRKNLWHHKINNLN
Nature of the assay: Yeast FTase Assay. The following applies: pH 7.5. On the procedure:
Assays were realized on 96-well plates, prepared with Biomek NKMC and Biomek 3000 from Beckman Coulter and read on Wallac Victor fluorimeter from Perkin-Elmer. Per well, 20 μL of farnesyl pyrophosphate (10 μM) was added to 180 μL of a solution containing 2 μL of varied concentrations of potential inhibitors (dissolved in DMSO) and 178 μL of a solution composed by 0.1 mL of partially purified recombinant yeast FTase (2.2 mg/ mL) and 7.0 mL of dansyl-GCVLS peptide (in the following buffer: 5.8 mM DTT, 6 mM MgCl2, 12 μM ZnCl2 and 0.09% (w/v) CHAPS, 53 mM Tris/HCl, pH 7.5). Then the fluorescence development was recorded for 15 min(0.7 second per well, 20 repeats) at 30°C with an excitation filter at 340 nm and an emission filter at 486 nm. Each measurement was realized twice as duplicate ortriplicate.

Assay [2] addresses Protein farnesyltransferase subunit beta/geranylgeranyltransferase type-1 subunit alpha (Homo sapiens, UniProt P49354+P49356). As to the kind of experiment: Human FTase Assay.
Protocol: Assays were realized on 96-well plates, as described for yeast FTase but octyl-D-glucopyranoside (0.18%) was used instead of CHAPS and the solution contains 5 μLof partially purified human FTase (1.5 mg/mL)7 in 1 mL peptide solution.
Assay [3] addresses T2, Protein farnesyltransferase alpha subunit/subunit beta (Trypanosoma brucei brucei, UniProt Q9NC76+Q9NC77).
T2 sequence (Q9NC77 whole entry): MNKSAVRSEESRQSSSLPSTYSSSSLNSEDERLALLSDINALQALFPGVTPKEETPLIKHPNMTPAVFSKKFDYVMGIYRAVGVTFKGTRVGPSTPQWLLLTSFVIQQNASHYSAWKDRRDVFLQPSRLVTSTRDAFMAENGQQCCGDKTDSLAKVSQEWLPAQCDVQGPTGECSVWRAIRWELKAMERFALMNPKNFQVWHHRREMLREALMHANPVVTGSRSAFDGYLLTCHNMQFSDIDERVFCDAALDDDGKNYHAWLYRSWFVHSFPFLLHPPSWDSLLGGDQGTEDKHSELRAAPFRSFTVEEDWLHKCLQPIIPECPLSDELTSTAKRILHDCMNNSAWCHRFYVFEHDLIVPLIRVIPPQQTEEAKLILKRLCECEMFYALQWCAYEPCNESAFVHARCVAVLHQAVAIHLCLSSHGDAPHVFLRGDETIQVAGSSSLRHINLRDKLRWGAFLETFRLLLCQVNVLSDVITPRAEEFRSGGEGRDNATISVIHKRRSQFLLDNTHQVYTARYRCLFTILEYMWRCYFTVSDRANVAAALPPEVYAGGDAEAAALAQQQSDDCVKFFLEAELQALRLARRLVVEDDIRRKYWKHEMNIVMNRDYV
T2 sequence (Q9NC76 whole entry): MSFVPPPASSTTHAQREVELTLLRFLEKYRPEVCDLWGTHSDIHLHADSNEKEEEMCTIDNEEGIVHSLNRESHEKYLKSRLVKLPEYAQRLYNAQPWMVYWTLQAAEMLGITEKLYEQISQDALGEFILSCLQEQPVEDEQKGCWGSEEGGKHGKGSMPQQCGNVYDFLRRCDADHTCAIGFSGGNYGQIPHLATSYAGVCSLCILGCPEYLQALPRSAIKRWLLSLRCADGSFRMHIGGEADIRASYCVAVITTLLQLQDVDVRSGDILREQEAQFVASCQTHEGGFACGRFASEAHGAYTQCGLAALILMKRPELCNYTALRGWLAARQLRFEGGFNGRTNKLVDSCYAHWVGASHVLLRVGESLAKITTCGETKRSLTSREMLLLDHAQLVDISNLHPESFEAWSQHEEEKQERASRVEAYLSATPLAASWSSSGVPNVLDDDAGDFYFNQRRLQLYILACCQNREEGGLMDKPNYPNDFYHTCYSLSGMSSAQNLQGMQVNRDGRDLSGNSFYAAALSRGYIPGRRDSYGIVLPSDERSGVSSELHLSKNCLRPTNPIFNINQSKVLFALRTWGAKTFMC
Nature of the assay: T. brucei FTase Assay. The protocol: Assays were realized on 96-well plates, as described for human FTase with the dansylated peptide Dansyl-GCAIM and the solution contains 15 μL of partially purified Tb-FTase (1.0 mg/mL) in 1 mL peptide solution.

Consider `CC(C)Sc1sc(C(=O)O)c(-c2ccccc2)c1C#N` [3-Phenyl-4-cyano-5-(isopropylthio)thiophene-2-carboxylic acid (1s)], for which the IC50 amounted to 0.61 µM in assay [1], 34 µM in assay [2] and 42 µM in assay [3].

A word on the IC50: it is the concentration needed to halve the response being measured.
